Experimental data from US20070037833A1, “Compositions and methods for inhibiting neurodegeneration” (priority 2005, published 2007).
Entries after “also recorded” stand apart in the source; their conditions may differ.

How the values were obtained:
[1] = system: IGF receptor tyrosine kinase (IGFR); assay: Immunoblot for phospho-IGFR in spinal cord cultures; format: cell-based, rat
Protocol: (§1) Cells were lysed in 1% NP-40 lysis buffers containing protease inhibitors, subjected to SDS-PAGE and immunoblotted as previously described (Fryer et al., 1999; Fryer et al., 2000). For immunoprecipitation, lysates from 60 mm dishes were pre-cleared by incubation with protein A beads (Santa Cruz), incubated with primary antibody (4 μg/ml)×2 hours then 50 μL of beads added and incubated overnight with gentle agitation at 4° C. Beads were pelleted, washed 5× with 10 mM Tris pH 7.4+0.5 mM EGTA+0.5 mM EDTA+0.1% NP40 before elution in 1× Laemelli sample buffer. Antibody sources: BD Transduction Labs—TrkB and MAP Kinase used at 1:500, Cell Signaling—Akt 1:1000; phosphoTrk (tyr490) 1:1000; phospho p42/44 MAP Kinase (thr 202/tyr204) 1:1000; phosphoAkt (ser473) 1:500; IGFI antibody (tyr 1131) 1:500. Upstate—adenosine A2a 1:1000. Sigma—actin 1:200. Biosource—active src (clone 28) 1:200.
We followed up these observations by determining the effect of enprofylline on Trk signaling and determined the extent to which the resultant biochemical changes mimic the effects of direct pharmacological Trk antagonism with CEP4416. […] The effect of drug treatment on AKT was particularly marked. […] To determine the specificity of these agents, we examined their effect on Insulin-like growth factor 1 (IGF1) signaling through the IGF receptor tyrosine kinase (IGFR). […] It is unlikely that phosphodiesterase activity of enprofylline can explain these observations as increased cAMP levels enhance, not suppress, TrkB activation (Boulanger and Poo, 1999; Ji et al., 2005).

Akt = assay: Immunoblot for phosphoAKT in spinal cord cultures; format: cell-based, rat
[2] = system: motor neurons expressing G85R SOD; assay: Motor neuron death from HSV-expressed mutant SOD in spinal cord cultures; format: cell-based, rat; settings: 6 days post-infection; treatment daily or every other day
Excerpt: Various cDNAs were cloned into the PrpUC amplicon plasmid and were used to generate recombinant HSV as previously described (Neve et al., 1997). The titer of viruses used in these studies were routinely 3-5×10^7 plaque-forming units/ml. The cDNA for wild type/mutant SOD and wild type/mutant p150^glued were gifts of D. Borchelt and E. Holzbaur, respectively. The K295R mutant version of chick src was a gift of J. Brugge.
Mutations in superoxide dismutase (SOD) or the p150^glued subunit of dynactin are known to account for a familial form of ALS in a subpopulation of individuals (Rosen, 1993; Puls et al., 2003; Bruijn et al., 2004). We inquired whether expression the mutant forms of SOD or p150^glued caused motor neuron death in vitro and if Trk antagonism was neuroprotective. Recombinant herpes simplex viruses (HSVs) were generated that expressed wild type or mutant form of SOD (G85R) and wild type or mutant p150^glued (G59S). […] Spinal cord cultures were infected with virus at 14 DIV and the number of motor neurons was determined 2, 4, 6 or 8 days later (FIG. 4, panel a.).
We next determined if KW6002 could protect motor neurons from the toxic effects of mutant proteins. Spinal cord cultures were infected with viruses expressing wild type or mutant versions of SOD or p150^glued at 14 DIV, then treated with drug or vehicle for 4 days (FIG. 4, panel b.). […]

[3] = Robeva et al.; cited from earlier work
src-family kinases (SFK) = assay: Immunoblot for active SFKs (clone 28 antibody) in spinal cord cultures; format: cell-based, rat; settings: 24 hours treatment
Protocol: as §1
The precise mechanism by which G-protein coupled receptors trans-activate receptor tyrosine kinases is complex and to some extent receptor-subtype specific (Luttrell et al., 1999; Downward, 2003; Piiper and Zeuzem, 2004; Waters et al., 2004). […] If this pathway was operative in spinal cord neurons, then antagonism of adenosine A2a receptors might lead to reduced src activation and antagonism of SFKs might be neuro-protective. Src is negatively regulated by phosphorylation of tyrosine 529 (refers to human src sequence) and an antibody that recognizes a de-phospho epitope in this region (“clone 28”) is a reliable measure of active src and SFKs (Kawakatsu et al., 1996). We began by asking for adenosine A2a receptors and active SFKs are present in the same cells and if so, their subcellular distribution. Pure motor neurons, grown in the presence of BDNF were immunostained with a rabbit anti-adenosine A2a receptor and the clone 28 antibody. One hundred percent of motor neurons expressed both antigens and on dendrites, the immunoreactivity formed discrete fine puncta (FIG. 5a). Many, but not all, puncta were stained with both antibodies. […]

Protocol for purified motor neurons: Embryonic Sprague-dawley rat spinal cord neurons were grown on previously established cortical astrocyte monolayers as previously described (Hu and Kalb, 2003). Briefly, the cerebral cortex of postnatal day (P) 1-3 rat pups was dissociated and plated on tissue culture plastic (Primeria) or laminin/polylysine coated glass overslips and maintained in Minimal Essential Media (10% horse serum, 10% fetal bovine serum) and 10 μM AraC was added for 1 day to arrest further proliferation when confluent. Under these conditions, no cortical neurons are present in these cultures. […]
The media was removed (and saved), cells were exposed to 100 μM kainic acid or vehicle in Locke's buffer for one hour, washed three times in Locke's buffer not containing kainic acid and the original media restored to each dish (Hu and Kalb, 2003). […] To quantify the number of stained cells, we counted the number of labeled cells from three non-overlapping fields using a 5× objective on a Zeiss upright Axioskop microscope and the value from one coverslip was averaged. […] When cell body diameter was assessed in select experiments, a reticule was introduced into an eye piece and the length of the long axis of a neuron noted. […]

CCCn1c(=O)[nH]c(=O)c2[nH]cnc21 [enprofylline, 3-propylxanthine]
IGF1-induced IGFR phosphorylation ([1]; 24 hour pretreatment, then acute IGF1): neither CEP-4416 nor enprofylline blunted the acute response; also recorded: undiminished by 24 hour pretreatment | basal state of IGFR phosphorylation ([1]; 24 hour treatment): Neither drug led to an alteration in the abundance in the phosphorylated species; also recorded: had no effect on the basal state of IGFR phosphorylation | abundance of phosphoAKT (Akt; 6 and 24 hours, 100 μM enprofylline, 30 nM CEP-4416): decrease in the abundance of phosphoAKT and phosphoMAPK at 6 and 24 hours | phosphorylation of Akt (Akt; 6 hours post drug administration): decreases in the phosphorylation of Trk, MAP kinase and Akt | abundance of phosphoAKT (Akt; 24 hours post drug administration): robust reduction in phosphoTrk, phosphoMAPK and phosphoAKT | abundance of phosphoAKT (Akt; 48 hours post drug administration): remained depressed | motor neuron survival / toxicity of G85R SOD [2]: significantly greater number of motor neurons; also recorded: completely prevented the toxicity of mutant protein expression | bioavailability [3]: good | % motor neuron death after excitotoxic insult (purified motor neurons; 24 hours pre-treatment, grown in BDNF+CT1): 3±1% | death of motor neurons after kainic acid (purified motor neurons; pre-treated for 24 hrs): No death of motor neurons occurred | abundance of active SFKs (src-family kinases (SFK)): reduced | abundance of active SFKs (src-family kinases (SFK); listed as Enprofylline): caused a reduction in the abundance of active SFKs
